# Data from patent US9511134B2, “Inducing immune responses to influenza virus using polypeptide and nucleic acid compositions” (priority 2006, dated 2016).
# Like-named read-outs stand apart in the source and are kept apart here. Where no end group is shown, it is not given here.
# Experiments:
# Assay in all cases: biochemical
# Format in all cases: binding
# DRB1*0101 = biological target: T1, DRB1*0101 (Homo sapiens, UniProt P01903+P01911, A100R/D57E/F55L/F60I/F76Y/I96L/L162R/M171V/P40L/Q125E/R42F/V115G/Y59C); settings: IC50 nM to purified HLA DRB1*0101
# T1 construct: made in house; host or cells: EBV-transformed homozygous human B cell lines, transfected fibroblasts or single-allele 721.221 transfectants
# DRB1*1302 = DRB1*1302 (Homo sapiens, UniProt P01903+P01911, A100E/A169T/K41T/L162R/M171V/P40S/Q125H/Q178H/Q39Y/Q99D/R42S/S66N/T262R/V115G/W38E/Y61H); settings: read-out: IC50 nM to purified HLA DRB1*1302
# Sequence of DRB1*1302 (P01903 26-254 limits assumed, other chains not shown): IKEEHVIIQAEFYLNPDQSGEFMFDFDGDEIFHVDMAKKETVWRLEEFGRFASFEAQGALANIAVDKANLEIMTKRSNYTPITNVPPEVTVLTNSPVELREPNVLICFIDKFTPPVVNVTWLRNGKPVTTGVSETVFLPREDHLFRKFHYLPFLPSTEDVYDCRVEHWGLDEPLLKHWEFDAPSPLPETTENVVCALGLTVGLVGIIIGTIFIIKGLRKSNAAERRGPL
# DRB1*1501 = biological target: T2, DRB1*1501 (Homo sapiens, UniProt P01903+P01911); settings: read-out: IC50 nM to purified HLA DRB1*1501
# T2 construct: made in house; host or cells: EBV-transformed homozygous human B cell lines, transfected fibroblasts or single-allele 721.221 transfectants
# DRB4*0101 = biological target: T3, DRB4*0101 (Homo sapiens, UniProt P01903+P13762, G164S)
# T3 construct: made in house; host or cells: EBV-transformed homozygous human B cell lines, transfected fibroblasts or single-allele 721.221 transfectants
# DRB1*0301 = biological target: T4, DRB1*0301 (Homo sapiens, UniProt P01903+P01911, A100K/A102G/A103R/A169T/F55Y/I96L/K41T/L162R/M171V/P40S/Q125H/Q178H/Q39Y/R42S/S66N/T106N/T262R/W38E/Y61H)
# T4 construct: made in house; host or cells: EBV-transformed homozygous human B cell lines, transfected fibroblasts or single-allele 721.221 transfectants
# T4 sequence (P01903 26-254, other chains not shown): as the sequence (P01903 26-254 limits assumed, other chains not shown) above
# DRB1*0401 = biological target: T5, DRB1*0401 (Homo sapiens, UniProt P01903+P01911, A100K/A169T/F76Y/I96L/K127E/L162R/M171V/N62H/P40V/Q125Y/R42H/S133A/S149N/S66Y/V115G/V209L/W38E); settings: read-out: IC50 nM to purified HLA DRB1*0401
# T5 construct: made in house; host or cells: EBV-transformed homozygous human B cell lines, transfected fibroblasts or single-allele 721.221 transfectants
# DRB1*0404 = DRB1*0404 (Homo sapiens, UniProt P01903+P01911, A100R/A169T/F76Y/I96L/K127E/L162R/M171V/N62H/P40V/Q125Y/R42H/S133A/S149N/S66Y/V209L/W38E); settings: IC50 nM to purified HLA DRB1*0404
# [1] = IC50 nM to purified HLA DRB4*0101
Compound,IC50 (DRB1*0101) [nM],IC50 (DRB1*1302) [nM],IC50 (DRB1*1501) [nM],IC50 (DRB4*0101; [1]) [nM],IC50 (DRB1*0301) [nM],IC50 (DRB1*0401) [nM],IC50 (DRB1*1501; Table 4) [nM],IC50 (DRB4*0101; read-out: IC50 nM to purified HLA DRB4*0101) [nM],IC50 (DRB1*0404) [nM]
CC[C@H](C)[C@H](NC(=O)[C@H](CC(C)C)NC(=O)[C@H](Cc1c[nH]c2ccccc12)NC(=O)[C@@H](NC(=O)[C@@H](N)C(C)C)C(C)C)C(=O)N[C@@H](CCCCN)C(=O)N[C@@H](CCCCN)C(=O)N[C@@H](CC(N)=O)C(=O)N[C@@H](CO)C(=O)N[C@H](C(=O)N[C@@H](Cc1ccc(O)cc1)C(=O)N1CCC[C@H]1C(=O)N[C@H](C(=O)N[C@H](C(=O)N[C@@H](CCCCN)C(=O)N[C@@H](CCCNC(=N)N)C(=O)O)[C@@H](C)CC)[C@@H](C)O)[C@@H](C)O [Flu.HA.163],464,14,99,1660,,,,,
CC(C)C[C@H](NC(=O)[C@H](C)NC(=O)CNC(=O)[C@H](CCC(N)=O)NC(=O)[C@@H](N)[C@@H](C)O)C(=O)N[C@@H](CC(C)C)C(=O)N[C@@H](CC(N)=O)C(=O)N[C@@H](CC(=O)O)C(=O)N[C@@H](CCCCN)C(=O)N[C@@H](Cc1c[nH]cn1)C(=O)N[C@@H](CO)C(=O)N[C@@H](CC(N)=O)C(=O)NCC(=O)N[C@H](C(=O)N[C@H](C(=O)N[C@@H](CCCCN)C(=O)N[C@@H](CC(=O)O)C(=O)O)C(C)C)[C@@H](C)O [Flu.NA.115],,468,822,,177,19000,,,
CSCC[C@H](NC(=O)[C@H](CC(C)C)NC(=O)[C@@H](NC(=O)[C@H](CCCNC(=N)N)NC(=O)[C@H](Cc1c[nH]cn1)NC(=O)[C@@H]1CCCN1C(=O)[C@H](CO)NC(=O)[C@H](CCCNC(=N)N)NC(=O)[C@H](CC(=O)O)NC(=O)[C@H](CCCCN)NC(=O)[C@@H](NC(=O)[C@@H](NC(=O)CNC(=O)[C@@H](N)CC(N)=O)[C@@H](C)O)C(C)C)[C@@H](C)O)C(=O)N[C@@H](CO)C(=O)O [Flu.NA.126],581,7930,,8880,,17900,,,
CC[C@H](C)[C@H](NC(=O)[C@H](CC(C)C)NC(=O)[C@H](CCCNC(=N)N)NC(=O)CNC(=O)[C@@H](N)CCC(=O)O)C(=O)N[C@@H](CCC(N)=O)C(=O)N[C@@H](CC(N)=O)C(=O)N[C@@H](CO)C(=O)N[C@H](C(=O)N[C@H](C(=O)N[C@H](C(=O)N[C@@H](CCC(=O)O)C(=O)N[C@@H](CCCNC(=N)N)C(=O)N[C@@H](CCSC)C(=O)N[C@H](C(=O)O)C(C)C)[C@@H](C)CC)[C@@H](C)O)[C@@H](C)CC [Flu.NP.56],,55,,15,,,,,
CC[C@H](C)[C@H](NC(=O)[C@H](CO)NC(=O)[C@H](CC(N)=O)NC(=O)[C@@H](N)CCC(N)=O)C(=O)N[C@H](C(=O)N[C@H](C(=O)N[C@@H](CCC(=O)O)C(=O)N[C@@H](CCCNC(=N)N)C(=O)N[C@@H](CCSC)C(=O)N[C@H](C(=O)N[C@@H](CC(C)C)C(=O)N[C@@H](CO)C(=O)N[C@@H](C)C(=O)N[C@@H](Cc1ccccc1)C(=O)N[C@@H](CC(=O)O)C(=O)O)C(C)C)[C@@H](C)CC)[C@@H](C)O [Flu.NP.61],,,1200,,,430,1200,39,
CC[C@H](C)[C@H](NC(=O)[C@H](CCCNC(=N)N)NC(=O)[C@H](CCCNC(=N)N)NC(=O)[C@@H](NC(=O)[C@H](CCC(=O)O)NC(=O)[C@H](CCC(=O)O)NC(=O)[C@H](CCCCN)NC(=O)[C@H](CC(=O)O)NC(=O)[C@H](Cc1ccc(O)cc1)NC(=O)[C@H](CC(C)C)NC(=O)[C@@H](NC(=O)[C@H](CC(C)C)NC(=O)[C@H](CCC(=O)O)NC(=O)[C@@H](N)CCCNC(=N)N)[C@@H](C)CC)[C@@H](C)CC)C(=O)N[C@@H](Cc1c[nH]c2ccccc12)C(=O)O [Flu.NP.109],,,,,59,,,,1800
CSCC[C@H](NC(=O)[C@H](C)NC(=O)[C@H](CCCCN)NC(=O)[C@@H](N)CCC(N)=O)C(=O)N[C@@H](CCSC)C(=O)N[C@@H](CC(=O)O)C(=O)N[C@@H](CCC(N)=O)C(=O)N[C@H](C(=O)N[C@@H](CCCNC(=N)N)C(=O)N[C@@H](CCC(=O)O)C(=O)N[C@@H](CO)C(=O)N[C@@H](CCCNC(=N)N)C(=O)N[C@@H](CC(N)=O)C(=O)N1CCC[C@H]1C(=O)NCC(=O)O)C(C)C [Flu.NP.238],,,,,450,,,,1830
CC[C@H](C)[C@H](NC(=O)[C@H](C)NC(=O)[C@@H](N)CCC(N)=O)C(=O)N[C@@H](CCSC)C(=O)N[C@@H](CC(=O)O)C(=O)N[C@@H](CCCCN)C(=O)N[C@@H](CC(=O)O)C(=O)N[C@H](C(=O)N[C@H](C(=O)N[C@@H](CC(C)C)C(=O)N[C@@H](CCCCN)C(=O)N[C@@H](C)C(=O)N[C@@H](CC(N)=O)C(=O)N[C@@H](Cc1ccccc1)C(=O)N[C@@H](CO)C(=O)O)[C@@H](C)CC)[C@@H](C)CC [Flu.NS1.124],,,,,,,,,310
CC[C@H](C)[C@H](NC(=O)[C@H](CO)NC(=O)[C@H](CCC(=O)O)NC(=O)CN)C(=O)N[C@H](C(=O)N[C@H](C(=O)N[C@@H](CCC(=O)O)C(=O)N[C@@H](CC(C)C)C(=O)N[C@@H](CC(=O)O)C(=O)N[C@@H](CC(=O)O)C(=O)N1CCC[C@H]1C(=O)N[C@@H](CC(N)=O)C(=O)N[C@@H](C)C(=O)N[C@@H](CC(C)C)C(=O)N[C@@H](CC(C)C)C(=O)O)C(C)C)[C@@H](C)CC [Flu.PA.61],,59,,,,,,,80
CC(C)C[C@H](NC(=O)[C@H](CO)NC(=O)[C@H](CCCNC(=N)N)NC(=O)[C@H](CC(C)C)NC(=O)[C@H](CCC(=O)O)NC(=O)[C@@H]1CCCN1C(=O)[C@H](CCC(=O)O)NC(=O)[C@H](CC(=O)O)NC(=O)[C@H](CO)NC(=O)[C@H](CC(=O)O)NC(=O)[C@H](Cc1ccc(O)cc1)NC(=O)[C@H](CCC(N)=O)NC(=O)[C@H](CCCCN)NC(=O)[C@@H](N)CC(C)C)C(=O)N[C@@H](CO)C(=O)O [Flu.PA.393],17700,,,,88,7260,,,5800
CC[C@H](C)[C@H](NC(=O)[C@H](CCC(=O)O)NC(=O)[C@H](CC(=O)O)NC(=O)[C@H](CC(C)C)NC(=O)[C@H](CCC(=O)O)NC(=O)[C@@H](NC(=O)[C@H](Cc1c[nH]c2ccccc12)NC(=O)[C@@H](NC(=O)[C@@H](N)CO)[C@@H](C)CC)[C@@H](C)CC)C(=O)NCC(=O)N[C@@H](CCC(=O)O)C(=O)N[C@@H](CC(=O)O)C(=O)N[C@H](C(=O)N[C@@H](C)C(=O)N1CCC[C@H]1C(=O)O)C(C)C [Flu.PA.423],13400,,,,59,5400,,,7610
CC[C@H](C)[C@H](NC(=O)[C@H](CCSC)NC(=O)[C@H](CC(N)=O)NC(=O)[C@@H](N)CC(N)=O)C(=O)N[C@@H](CC(N)=O)C(=O)N[C@@H](CC(N)=O)C(=O)N[C@@H](CC(=O)O)C(=O)N[C@@H](CC(C)C)C(=O)NCC(=O)N1CCC[C@H]1C(=O)N[C@@H](C)C(=O)N[C@H](C(=O)N[C@@H](C)C(=O)N[C@@H](CCC(N)=O)C(=O)N[C@@H](CCSC)C(=O)O)[C@@H](C)O [Flu.PB1.535],,477,,,527,798,,,1830
CC[C@H](C)[C@H](NC(=O)[C@H](CC(N)=O)NC(=O)[C@H](Cc1ccc(O)cc1)NC(=O)[C@H](CC(C)C)NC(=O)[C@H](CC(N)=O)NC(=O)[C@@H]1CCCN1C(=O)CNC(=O)CNC(=O)[C@H](CC(=O)O)NC(=O)[C@H](CO)NC(=O)[C@@H](NC(=O)[C@H](CC(C)C)NC(=O)[C@H](CC(C)C)NC(=O)CNC(=O)[C@H](C)N)C(C)C)C(=O)O [Flu.PB1.590],8120,105,,,107,3000,,,3490
CC[C@H](C)[C@H](NC(=O)[C@H](CCCNC(=N)N)NC(=O)[C@H](CCCCN)NC(=O)[C@H](CC(=O)O)NC(=O)[C@H](C)NC(=O)[C@@H](NC(=O)[C@@H](NC(=O)[C@@H]1CCCN1C(=O)[C@H](Cc1ccc(O)cc1)NC(=O)[C@@H](N)CCCCN)[C@@H](C)CC)[C@@H](C)O)C(=O)N[C@@H](CCSC)C(=O)N[C@@H](CCC(=O)O)C(=O)N[C@@H](CCSC)C(=O)N[C@H](C(=O)N1CCC[C@H]1C(=O)O)[C@@H](C)CC [Flu.PB2.57],,68,,,48,9390,,,2290
CC[C@H](C)[C@H](NC(=O)[C@@H](NC(=O)[C@H](CC(C)C)NC(=O)[C@H](CO)NC(=O)[C@H](CCC(N)=O)NC(=O)[C@H](CC(=O)O)NC(=O)[C@@H](NC(=O)[C@H](CC(=O)O)NC(=O)[C@H](CC(=O)O)NC(=O)[C@H](CC(N)=O)NC(=O)[C@H](CCCNC(=N)N)NC(=O)[C@@H](NC(=O)[C@H](CCC(=O)O)NC(=O)CNC(=O)CN)C(C)C)C(C)C)[C@@H](C)CC)C(=O)O [Flu.PB2.250],,2500,,,,,,,458
PVHFRNQVKIRRRVD [Flu.PB2.135],2970,359,,,458,1300,,,5980
